Each compound was assayed against T1, Androgen Receptor dual T878A/L702H mutant protein (Homo sapiens, UniProt P10275, L702H/T878A) (assay: Dual Mutant (T878A/L702H) Androgen Receptor Degradation Assay (HTRF, MDA-PCa-2b cells)). Details: 18 h, 18 h incubation, read-out: mean asymptote max.
T1 construct: host or cells: MDA-PCa-2b
T1 sequence (P10275 1-920 L702H/T878A): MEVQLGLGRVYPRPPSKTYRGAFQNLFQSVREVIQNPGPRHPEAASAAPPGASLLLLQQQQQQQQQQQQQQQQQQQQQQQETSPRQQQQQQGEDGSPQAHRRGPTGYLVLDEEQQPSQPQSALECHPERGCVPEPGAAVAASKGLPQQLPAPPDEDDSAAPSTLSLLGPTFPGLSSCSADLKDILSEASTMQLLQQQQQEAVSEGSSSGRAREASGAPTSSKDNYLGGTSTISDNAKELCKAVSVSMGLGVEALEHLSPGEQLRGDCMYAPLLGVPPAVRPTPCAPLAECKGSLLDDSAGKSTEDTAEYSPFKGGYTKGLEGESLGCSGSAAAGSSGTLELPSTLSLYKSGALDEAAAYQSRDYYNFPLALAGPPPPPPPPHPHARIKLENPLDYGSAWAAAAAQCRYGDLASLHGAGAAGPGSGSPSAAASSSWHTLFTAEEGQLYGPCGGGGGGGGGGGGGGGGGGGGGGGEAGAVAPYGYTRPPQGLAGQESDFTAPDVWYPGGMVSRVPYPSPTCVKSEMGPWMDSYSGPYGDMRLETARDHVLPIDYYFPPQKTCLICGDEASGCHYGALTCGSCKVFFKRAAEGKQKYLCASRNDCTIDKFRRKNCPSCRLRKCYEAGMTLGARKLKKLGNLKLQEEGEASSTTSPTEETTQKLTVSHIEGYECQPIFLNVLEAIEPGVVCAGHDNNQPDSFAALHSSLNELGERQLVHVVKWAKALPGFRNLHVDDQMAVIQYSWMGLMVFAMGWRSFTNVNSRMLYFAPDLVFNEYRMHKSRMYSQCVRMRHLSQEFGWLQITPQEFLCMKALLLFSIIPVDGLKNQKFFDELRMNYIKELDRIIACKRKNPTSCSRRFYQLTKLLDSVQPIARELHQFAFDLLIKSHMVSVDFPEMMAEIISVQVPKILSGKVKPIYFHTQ
Assay type: cell-based
Procedure, shortened: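 PROTACs tested as 11-point, 3-fold dilutions on 10,000 cells for 18 h at 37 °C. Remaining AR read by HTRF (665/620 nm ratio) after lysis, normalised to DMSO-treated cells (0%) and cell-free medium (100%). Relative DC50 from 4-parameter fit inflection, absolute DC50 interpolated at 50% degradation; Dmax is maximum observed degradation.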

Dmax [%]	SMILES
49	CC1(C)[C@H](NC(=O)c2ccc(N3CCC(CN4CC[C@@H](n5ncc6c(N7CCC(=O)NC7=O)cccc65)[C@@H](F)C4)CC3)c(F)c2)C(C)(C)[C@H]1Oc1ccc(C#N)c2ncccc12 [Example 45, N-((1r,3r)-3-((8-Cyanoquinolin-5-yl)oxy)-2,2,4,4-tetramethylcyclobutyl)-4-(4-(((35,4R)-4-(4-(2,4-dioxotetrahydropyrimidin-1(2H)-yl)-1H-indazol-1-yl)-3-fluoropiperidin-1-yl)methyl)piperidin-1-yl)-3-fluorobenzamide]
≥ 50	CC1(C)[C@H](NC(=O)c2ccc(N3CCC(CN4CC[C@H](n5ncc6c(N7CCC(=O)NC7=O)cccc65)[C@H](F)C4)CC3)c(F)c2)C(C)(C)[C@H]1Oc1ccc(C#N)c2ncccc12 [Example 46, N-((1r,3r)-3-((8-Cyanoquinolin-5-yl)oxy)-2,2,4,4-tetramethylcyclobutyl)-4-(4-(((3R,4S)-4-(4-(2,4-dioxotetrahydropyrimidin-1(2H)-yl)-1H-indazol-1-yl)-3-fluoropiperidin-1-yl)methyl)piperidin-1-yl)-3-fluorobenzamide]
≥ 50	CC1(C)[C@H](NC(=O)c2ccc(N3CCC(CN4CCC(n5ccc6c(N7CCC(=O)NC7=O)ncnc65)CC4)CC3)c(F)c2)C(C)(C)[C@H]1Oc1ccc(C#N)c2ncccc12 [Example 47, N-((1r,3r)-3-((8-Cyanoquinolin-5-yl)oxy)-2,2,4,4-tetramethylcyclobutyl)-4-(4-((4-(4-(2,4-dioxotetrahydropyrimidin-1(2H)-yl)-7H-pyrrolo[2,3-d]pyrimidin-7-yl)piperidin-1-yl)methyl)piperidin-1-yl)-3-fluorobenzamide]
≥ 50	CC1(C)[C@H](NC(=O)c2ccc(N3CCC(O)(CN4CCC(n5ncc6c(N7CCC(=O)NC7=O)cccc65)CC4)CC3)c(F)c2)C(C)(C)[C@H]1Oc1ccc(C#N)c2ncccc12 [Example 48, N-((1r,3r)-3-((8-Cyanoquinolin-5-yl)oxy)-2,2,4,4-tetramethylcyclobutyl)-4-(4-((4-(4-(2,4-dioxotetrahydropyrimidin-1(2H)-yl)-1H-indazol-1-yl)piperidin-1-yl)methyl)-4-hydroxypiperidin-1-yl)-3-fluorobenzamide]
≥ 50	CC1(C)[C@H](NC(=O)c2ccc(N3CCC4(CC3)CC(N3CCC(n5ncc6c(N7CCC(=O)NC7=O)cccc65)CC3)C4)c(F)c2)C(C)(C)[C@H]1Oc1ccc(C#N)c2ncccc12 [Example 49, N-((1r,3r)-3-((8-Cyanoquinolin-5-yl)oxy)-2,2,4,4-tetramethylcyclobutyl)-4-(2-(4-(4-(2,4-dioxotetrahydropyrimidin-1(2H)-yl)-1H-indazol-1-yl)piperidin-1-yl)-7-azaspiro[3.5]nonan-7-yl)-3-fluorobenzamide]
≥ 50	CC1(C)[C@H](NC(=O)c2ccc(N3CCC(CN4CCC(n5ncc6c(N7CCC(=O)NC7=O)c(F)ccc65)CC4)CC3)c(F)c2)C(C)(C)[C@H]1Oc1ccc(C#N)c2ncccc12 [Example 50, N-((1r,3r)-3-((8-Cyanoquinolin-5-yl)oxy)-2,2,4,4-tetramethylcyclobutyl)-4-(4-((4-(4-(2,4-dioxotetrahydropyrimidin-1(2H)-yl)-5-fluoro-1H-indazol-1-yl)piperidin-1-yl)methyl)piperidin-1-yl)-3-fluorobenzamide]
≥ 50	CC1(C)[C@H](NC(=O)c2ccc(N3CCC(CN4CCC(n5ccc6c(N7CCC(=O)NC7=O)c(F)ccc65)CC4)CC3)c(F)c2)C(C)(C)[C@H]1Oc1ccc(C#N)c2ncccc12 [Example 51, N-((1r,3r)-3-((8-Cyanoquinolin-5-yl)oxy)-2,2,4,4-tetramethylcyclobutyl)-4-(4-((4-(4-(2,4-dioxotetrahydropyrimidin-1(2H)-yl)-5-fluoro-1H-indol-1-yl)piperidin-1-yl)methyl)piperidin-1-yl)-3-fluorobenzamide]

More lines, now with the values behind:

SMILES	Dmax [%]
CC1(C)[C@H](NC(=O)c2ccc(N3CCC(CN4CC[C@@H](n5ncc6c(N7CCC(=O)NC7=O)cccc65)C4)CC3)c(F)c2)C(C)(C)[C@H]1Oc1ccc(C#N)c2ncccc12 [Example 36, N-((1r,3r)-3-((8-Cyanoquinolin-5-yl)oxy)-2,2,4,4-tetramethylcyclobutyl)-4-(4-(((R)-3-(4-(2,4-dioxotetrahydropyrimidin-1(2H)-yl)-1H-indazol-1-yl)pyrrolidin-1-yl)methyl)piperidin-1-yl)-3-fluorobenzamide]	41
CC1(C)[C@H](NC(=O)c2ccc(N3CCC(CN4CC[C@H](n5ncc6c(N7CCC(=O)NC7=O)cccc65)C4)CC3)c(F)c2)C(C)(C)[C@H]1Oc1ccc(C#N)c2ncccc12 [Example 37, N-((1r,3r)-3-((8-Cyanoquinolin-5-yl)oxy)-2,2,4,4-tetramethylcyclobutyl)-4-(4-(((S)-3-(4-(2,4-dioxotetrahydropyrimidin-1(2H)-yl)-1H-indazol-1-yl)pyrrolidin-1-yl)methyl)piperidin-1-yl)-3-fluorobenzamide]	≥ 50
CC1(C)[C@H](NC(=O)c2ccc(N3CCC(CN4CCC(n5ncc6c(N7CCC(=O)NC7=O)cc(F)cc65)CC4)CC3)c(F)c2)C(C)(C)[C@H]1Oc1ccc(C#N)c2ncccc12 [Example 38, N-((1r,3r)-3-((8-Cyanoquinolin-5-yl)oxy)-2,2,4,4-tetramethylcyclobutyl)-4-(4-((4-(4-(2,4-dioxotetrahydropyrimidin-1(2H)-yl)-6-fluoro-1H-indazol-1-yl)piperidin-1-yl)methyl)piperidin-1-yl)-3-fluorobenzamide]	≥ 50
CC1(C)[C@H](NC(=O)c2ccc(N3CCC(CN4CCC(n5ncc6c(N7CCC(=O)NC7=O)nccc65)CC4)CC3)c(F)c2)C(C)(C)[C@H]1Oc1ccc(C#N)c2ncccc12 [Example 39, N-((1r,3r)-3-((8-Cyanoquinolin-5-yl)oxy)-2,2,4,4-tetramethylcyclobutyl)-4-(4-((4-(4-(2,4-dioxotetrahydropyrimidin-1(2H)-yl)-1H-pyrazolo[4,3-c]pyridin-1-yl)piperidin-1-yl)methyl)piperidin-1-yl)-3-fluorobenzamide]	≥ 50
CC1(C)[C@H](NC(=O)c2ccc(N3CCC(CN4CCC(n5ncc6c(N7CCC(=O)NC7=O)ccnc65)CC4)CC3)c(F)c2)C(C)(C)[C@H]1Oc1ccc(C#N)c2ncccc12 [Example 40, N-((1r,3r)-3-((8-Cyanoquinolin-5-yl)oxy)-2,2,4,4-tetramethylcyclobutyl)-4-(4-((4-(4-(2,4-dioxotetrahydropyrimidin-1(2H)-yl)-1H-pyrazolo[3,4-b]pyridin-1-yl)piperidin-1-yl)methyl)piperidin-1-yl)-3-fluorobenzamide]	≥ 50
CC1(C)[C@H](NC(=O)c2ccc(N3CCC(CN4CCC(n5ncc6c(N7CCC(=O)NC7=O)cc(Cl)cc65)CC4)CC3)c(F)c2)C(C)(C)[C@H]1Oc1ccc(C#N)c2ncccc12 [Example 41, 4-(4-((4-(6-Chloro-4-(2,4-dioxotetrahydropyrimidin-1(2H)-yl)-1H-indazol-1-yl)piperidin-1-yl)methyl)piperidin-1-yl)-/-((1r,3r)-3-((8-cyanoquinolin-5-yl)oxy)-2,2,4,4-tetramethylcyclobutyl)-3-fluorobenzamide]	≥ 50
CC1(C)[C@H](NC(=O)c2ccc(N3CCC(CN4CCC(n5ncc6c(N7CCC(=O)NC7=O)cc(C(F)(F)F)cc65)CC4)CC3)c(F)c2)C(C)(C)[C@H]1Oc1ccc(C#N)c2ncccc12 [Example 42, N-((1r,3r)-3-((8-Cyanoquinolin-5-yl)oxy)-2,2,4,4-tetramethylcyclobutyl)-4-(4-((4-(4-(2,4-dioxotetrahydropyrimidin-1(2H)-yl)-6-(trifluoromethyl)-1H-indazol-1-yl)piperidin-1-yl)methyl)piperidin-1-yl)-3-fluorobenzamide]	≥ 50
CC1(C)[C@H](NC(=O)c2ccc(N3CCC(CN4CCC(n5ccc6c(N7CCC(=O)NC7=O)cccc65)CC4)CC3)cc2)C(C)(C)[C@H]1Oc1ccc(C#N)c2ncccc12 [Example 43, N-((1r,3r)-3-((8-Cyanoquinolin-5-yl)oxy)-2,2,4,4-tetramethylcyclobutyl)-4-(4-((4-(4-(2,4-dioxotetrahydropyrimidin-1(2H)-yl)-1H-indol-1-yl)piperidin-1-yl)methyl)piperidin-1-yl)benzamide]	≥ 50
CC1(C)[C@H](NC(=O)c2ccc(N3CCC(CN4CCC(n5ncc6c(N7CCC(=O)NC7=O)cccc65)CC4)CC3)c(Cl)c2)C(C)(C)[C@H]1Oc1ccc(C#N)c2ncccc12 [Example 44, 3-Chloro-N-((1r,3r)-3-((8-cyanoquinolin-5-yl)oxy)-2,2,4,4-tetramethylcyclobutyl)-4-(4-((4-(4-(2,4-dioxotetrahydropyrimidin-1(2H)-yl)-1H-indazol-1-yl)piperidin-1-yl)methyl)piperidin-1-yl)benzamide]	≥ 50

Source: patent US12577231B2, “Androgen receptor PROTACS” (GlaxoSmithKline Intellectual Property Development Limited, priority 2023, dated 2026)
